In US9351929B2, “Antibiotic formulations, unit doses, kits, and methods” (Bayer Intellectual Property GMBH, priority 2005, dated 2016):
Structures can show the parent of a compound that is named as a salt.

Experiments:
[1] = Aerosol particle size distribution by laser diffraction; assay type: physicochemical; conditions: solutions in WFI 60-140 mg/ml, fill 2-4 ml
Description: Droplet size distributions for aerosolized drug and placebo solutions were measured using the Sympatec HELOS laser diffraction spectrometer. In preparation for a run, the nebulizer was connected to the compressed air line, the flow turned on and the pressure regulator set to a driving pressure to generate a flow rate of 8 LPM through the nebulizer. The flow was then turned off by closing the flow shut-off valve. Next, the nebulizer was connected to a “T” piece with one port plugged, and the other port coupled to a mouthpiece. The nebulizer was then filled with drug solution, and mounted so that nebulizer mouthpiece was aligned parallel to the nozzle of the Rodos dry powder disperser apparatus already installed in the spectrometer. The laser diffraction system was setup to automatically trigger when it sensed the presence of the aerosol generated by the nebulizer. Measurements were initiated by opening the shut-off valve to pressurize the nebulizer and generate the aerosol. A total of 6 particle size distribution scans were taken for each nebulizer run, and then averaged to provide representative size distribution results.

beagle dogs = assay: 14-consecutive day face mask inhalation toxicity and recovery; assay type: in vivo, dog
Description: Within 2 hours prior to usage, a vancomycin nebulizer solution having a concentration of 120 mg/ml was formed by dissolving vancomycin hydrochloride (available from Alpharma, Copenhagen, Denmark) in sterile water for injection USP (available from B. Braun Medical Inc., Bethlehem, Pa.). The solution was used to generate aerosolized vancomycin for all vancomycin exposure groups.
The exposure system consisted of a single, cylindrical, plexiglass inhalation chamber (volume of ˜23.7 L, 14.61-cm radius, 35.56-cm height). The chamber was supplied with two Aerotech II nebulizers operated at ˜40 psi. Nebulized test article and nebulizer air supply was diluted with ˜10 L/min HEPA-filtered dilution air. The flow through the system was ˜36 L/min.
The aerosolized vancomycin was administered via a face mask to 3 groups of male and female beagle dogs for durations of 15 min (Low), 30 min (Mid), and 60 min (High). A control group was exposed for 60 min to aerosols generated from normal saline solution, i.e., 0.9% sodium chloride injection USP (available from B. Braun Medical Inc.).
Groups of dogs from the Control and High level 14-day exposures were also studied following a 14-day recovery period. Endpoints for all groups of dogs included physical examinations, clinical observations, body weights, ophthalmology, cardiovascular EKG, clinical pathology (hematology, clinical chemistry), urinalyses, organ weights, histopathology, and toxicokinetics.

CD rats = assay: 14-consecutive day nose-only inhalation toxicity and recovery; assay type: in vivo, rat
Description: The solution was used to generate aerosolized vancomycin for all vancomycin exposure groups.
Nose-only exposures were conducted in a “flow-past” cylindrical inhalation chamber placed inside a steel-framed Plexiglas secondary containment box. The chamber contained 48 animal ports, each compatible with a single nose-only exposure tube, aerosol concentration sampling device (e.g., filter), or oxygen monitor.
The total air flow through the exposure system was balanced to achieve individual animal port flows of ˜500 mL/min (port flow approximated based on total chamber flow). Measured flows included sample flow rate, nebulizer flow rate, dilution flow rate (chamber make-up air), and chamber exhaust flow.
Vancomycin solution was aerosolized with two Aerotech II nebulizers operated at 20 psi driving pressure. The target aerosol Vancomycin concentration for all exposure levels was ˜1.0 mg/L.
Aerosolized vancomycin was administered to 3 groups of male and female CD rats (available from Charles River Laboratories, Kingston, N.Y.) for durations of 30 min (Low), 90 min (Mid), and 180 min (High). A control group was exposed for 180 min to aerosols generated from a normal saline solution. Groups of rats from the Control and High level 14-day exposures were also studied following a 14-day recovery period. Endpoints included clinical observations, body weights, clinical pathology (hematology, clinical chemistry), urinalyses, organ weights, and histopathology.

With CN[C@H](CC(C)C)C(=O)N[C@H]1C(=O)N[C@@H](CC(N)=O)C(=O)N[C@H]2C(=O)N[C@H]3C(=O)N[C@H](C(=O)N[C@H](C(=O)O)c4cc(O)cc(O)c4-c4cc3ccc4O)[C@H](O)c3ccc(c(Cl)c3)Oc3cc2cc(c3O[C@@H]2O[C@H](CO)[C@@H](O)[C@H](O)[C@H]2O[C@H]2C[C@](C)(N)[C@H](O)[C@H](C)O2)Oc2ccc(cc2Cl)[C@H]1O [Vancomycin HCl, vancomycin hydrochloride] the “volume weighted median size of aerosol” value [1] was 2-3 μm, the “mass median aerodynamic diameter of exposure aerosol” value (beagle dogs; 120 mg/ml solution, Aerotech II nebulizers, ~40 psi) was 1.9-2.6 μm and the “physical examinations, clinical observations, ophthalmology, ECG, hematology, clinical chemistry, urinalyses, gross necropsy, organ weights” value (beagle dogs; dog, 14-day inhalation) was “no vancomycin related effects”. The survival (beagle dogs; dog, 14 days, all groups) was “All dogs survived to scheduled necropsy”, the “recovery of histopathological effects” value (beagle dogs; dog, High level, 14-day recovery) was “complete after 14 days” and the histopathology (beagle dogs; dog, end of 14-day exposure) was “limited to microscopic findings in the lung”. For the same compound, the tolerability (beagle dogs; dog, face mask 15, 30, 60 min/day, 14 days) was “well-tolerated by all groups of dogs”, the “mass median aerodynamic diameter of exposure aerosol” value (CD rats; 120 mg/ml solution, Aerotech II nebulizers, 20 psi) was 2.0-2.6 μm and the “no observed effect level” value (CD rats; rat, 14-day inhalation) was “not established”. The “serum indicators of kidney function or urinalysis” value (CD rats; rat, 14-day inhalation) was “No vancomycin related changes”, the lung weight increase (CD rats; rat, High exposure level (180 min), 14 days) was ~19 % of control and the “histopathologic findings after recovery” value (CD rats; rat, High level, 14 days of recovery) was “substantial diminution of these findings”. For the same compound, the lung weight increase (CD rats; rat, Low exposure level (30 min), 14 days) was “approximately 8 % of control”, the “neutrophils (hematology)” value (CD rats; rat, Mid and High exposure levels) was “statistically significant increase” and the lung weight increase (CD rats; rat, Mid exposure level (90 min), 14 days) was ~20 % of control. For the same compound, the “exposure related histopathologic findings” value (CD rats; rat, end of 14-day exposure) was “limited to the respiratory tract”, the tolerability (CD rats; rat, inhalation 30, 90, 180 min/day, 14 days) was “well-tolerated by all groups of rats” and the body weight (CD rats; rat, inhalation 14 days) was “no vancomycin treatment related effects”. For the same compound, the clinical observations (CD rats; rat, inhalation 14 days) was “no vancomycin related effects” and the survival (CD rats; rat, inhalation 14 days, all groups) was “All rats survived to scheduled necropsy”.
